Experimental data taken from patent US6991818B2, “Compound iso-squamocin obtained from seeds of annona squamosa and composition containing the same” (Council of Scientific & Industrial Research, priority 2001, dated 2006).
Converted amounts (≈) assume the structure as drawn. Where two headings read alike, the source gives them in different places.

What was measured:
colon cell line (H-29) = details: cited from earlier work
lung cell line (A-549) = details: cited from earlier work
corn plant hopper (CP-H) = assay: Evaluation screen delayed toxicity test (EVADT); assay type: in vivo; details: 250 ppm
Source text: (§1) Two spotted spidermite, green peach aphid (GPA) and corn plant hopper (GPH) when they were subjected evaluation screen (Eval) and evaluation screen delayed toxicity test EVDT for the insecticidal activity and results are summarized below: […]

[1] = tested on: Two spotted spidermite (TSSM); assay: Evaluation screen delayed toxicity test (EVADT); assay type: in vivo; details: 250 ppm
Source text: as §1

green peach aphid (GPA) = assay: Evaluation screen delayed toxicity test (EVADT); assay type: in vivo; details: 250 ppm
Source text: as §1

[2] = tested on: Southern Corn rootworm (SCRW); assay: Evaluation screen (EVAL) for insecticidal activity; assay type: in vivo; details: 250 ppm
[3] = tested on: oriental armyworm (Mythimna separata WLK) larvae; assay: Insect antifeedant bioassay on sorghum leaf discs; assay type: in vivo; details: for mortality: first and third instar larvae, concentration of 0.05% (MeOH) at 27°, untreated control 7% mortality; for Damage rating: 0.05% in methanol, visual scale 1 to 9 (1=<10%, 9=>80% leaf area consumed)
Description: The sample solutions (10 μl of a 0.05% solution) were applied evenly to the lower surface of leaf discs (5 cm^2) cut from sorghum hybrid variety CSH5 and the discs were allowed to dry on filter papers. After drying the leaf, discs were offered to 10 first instar M. separata larvae in plastic cups or to one third instar larva in 9-cm (diameter) plastic petric dishes. All larvae were starved for 2 h before the test and the leaf and the leaf discs were kept on moisture filter papers to keep them turgid. The larvae were confined to leaf discs for 24 h and during the period the larvae scratched or consumed >80% of the leaf disc area in the untreated controls. The leaf discs were rated visually for the extent of feeding on a scale upto 1 to 9 (1=<10%, 2=11 to 20%, 3=21 to 30%, 4=31 to 40%, 5=41 to 7=61 to 70%, 8=71 to 80%, 9=>80% leaf area scratched consumed). The larvae were then stirred for 12 h and weighed. Isosquamocin was evaluated by this procedure and the results have shown that it drastically. The feeding of the leaves of sorghum hybrid variety CSH 5 at a concentration of 0.05% in methanol) in comparison with control (methanol) against the first instar and third instar larvae of oriental armyworm (Mythimna separata WLK). It is very toxic to first instar larvae causing high larval mortality and the results are presented below: […]

[4] = tested on: Two spotted spidermite (TSSM); assay: Evaluation screen (EVAL) for insecticidal activity; assay type: in vivo; details: 250 ppm
Source text: as §1

[5] = tested on: newly hatched variegated cutworm (peridroma saucia, Noctuidae); assay: Chronic larval growth bioassay; assay type: in vivo; details: 10 days at 26° C.; for Larval growth, % of control / Larval survival, % of control / activity at 20 ppm: 20 ppm, newly hatched larvae (n=20); for activity at 20 ppm: Peridroma saucia, 240 h
Description: Chromic larveal growth bioassay % of control given in parenthesis. […] These bioassays were carried out according to the procedure described earlier (M. B. Isman, O. Koul, A. Luczynski and J. Kaminski, J. Agric. Food Chem. 38, 1406 (1990). These tests were performed by Prof. M. B. Isman and colleagues at University of British Columbia, Vancouver, Canada.

two sported spider mite = details: in vivo; cited from earlier work
cotton aphid = details: in vivo; cited from earlier work
southern corn rootworm = details: in vivo; cited from earlier work
[6] = tested on: yellow fever mosquito Aedes aegyptii; details: cited from earlier work
[7] = tested on: certain human tumor cell lines; details: values as low as; cited from earlier work
L-5178 Y = details: in vitro cytotoxic activity against L-5178 Y; cited from earlier work
[8] = Solubility of the waxy substance; assay type: physicochemical
[9] = First instar larvae, 0.05% in methanol on leaf discs, 24 h

bullatanocin/squamostatin-C/Annonin-V/Cherimolin-II
times more toxic than adriamycin (colon cell line (H-29)): about 10,000 times | times more toxic than adriamycin (lung cell line (A-549)): about 10,000 times

CCCCCCCCCC[C@H](O)[C@H]1CC[C@H]([C@H]2CC[C@H]([C@H](O)CCCCCCCCCC[C@@H](O)CC3=C[C@H](C)OC3=O)O2)O1 [squamocin-G]
CP-H (corn plant hopper (CP-H)): G8 (Greater than 80% reduction in population) | TSSM [1]: L9 (Less than 90% reduction in population) | GPA (green peach aphid (GPA)): L8 (Less than 80% mortality) | SCRW [2]: 100 | mortality [3]: 70% | TSSM [4]: L8 (Less than 80% mortality) | Larval growth, % of control [5]: 34% | Larval survival, % of control [5]: 45% | EC 50 ([5]; chronic larval growth bioassay): 5.65 ppm | LC 50 ([5]; chronic larval growth bioassay): 12 ppm

bullatacin
insecticidal concentration, two sported spider mite (two sported spider mite): 10 ppm | insecticidal concentration, cotton aphid (cotton aphid): 1 ppm | insecticidal concentration, southern corn rootworm (southern corn rootworm): 24 ppm

CCCCCCCCCC[C@H](O)[C@H]1CC[C@H]([C@H](O)CC[C@H](O)[C@@H]2CC[C@@H](CCCCCCC[C@@H](O)CC3=C[C@H](C)OC3=O)O2)O1 [bullatalicin, bullatalicin/squamostatin-B]
times more toxic than adriamycin (colon cell line (H-29)): about 10,000 times | LC 50 [6]: 9 mg/lit^−1 | ED50 [7]: ≥ 10^−7 ug/ml | times more toxic than adriamycin (lung cell line (A-549)): about 10,000 times | activity at 20 ppm ([5]; read-out: Larval growth, % of control): 135% | activity at 20 ppm ([5]; read-out: Larval survival, % of control): 100%

CCCCCCCCCCCCC(O)C1CCC(C(O)CCCCC(O)CCCCCC(O)CC2=CC(C)OC2=O)O1 (stereo not drawn) [annonacin A, reference compound]
LC 50 [6]: 10.8 mg/lit^−1

CCCCCC[C@@H](O)CCC[C@H](O)[C@@H]1CC[C@@H]([C@H](O)CC[C@@H](O)[C@@H]2CC[C@@H](CCCCCCCCCC3=C[C@@H](C)OC3=O)O2)O1 [squamostatin-A]
IC50 (L-5178 Y): 0.5 µg/mL (≈ 0.783 µM) | Larval growth, % of control [5]: 138% | Larval survival, % of control [5]: 100%

isosquamocin
CP-H (corn plant hopper (CP-H)): G8 (Greater than 80% reduction in population) | TSSM [1]: L9 (Less than 90% reduction in population) | SCRW [2]: 100 | Larval Survival (%) [3, 9]: 10.4% | Mean larval mass [3, 9]: 0.2 mg | Damage rating ([3]; First instar larvae): 1.3 | Mean larval mass ([3]; Third instar larvae, 0.05% in methanol on leaf discs, 24 h): 15.7 mg | Damage rating ([3]; Third instar larvae): 1.0 | mortality [3]: 70% | Solubility in ether, chloroform, dichloromethane, acetone, methanol and ethyl acetate [8]: readily soluble | Solubility in petroleum ether/hexane and water [8]: insoluble or very sparingly soluble | TSSM [4]: L8 (Less than 80% mortality) | Larval growth, % of control [5]: 20% | Larval survival, % of control [5]: 55%
